The source of these data is patent US12534493B2, “Bridged nucleoside and nucleotide” (Liid Pharmaceuticals, Inc., priority 2020, dated 2026).

Holding throughout (type): binding
Series [1] concerns single-stranded DNA: 5′-d(ACGAGAACATCC)-3′ (SEQ ID NO: 12). The series is described as follows: Melting temperature (Tm) measurement, double strand-forming ability, with single-stranded DNA. Particulars: duplex with single-stranded DNA SEQ ID NO: 12; for Tm: 10 mM phosphate buffer (pH7.0), 200 mM NaCl, 2.5 μM each oligonucleotide; for ΔTm/mod.: change per modification vs natural oligonucleotide. As for the experimental part:
(§1) A sample solution ([…]) with final concentrations of 10 mM phosphate buffer (pH7.0), 200 mM sodium chloride, and 2.5 μM each oligonucleotide was immersed in boiling water and slowly cooled to room temperature. The sample solution was cooled to 20° C., and the measurement was started. The temperature was raised to 90° C. at a rate of 0.5° C. per minute, and the absorbance at 260 nm was plotted at intervals of 0.5° C. All Tm values were calculated by the midline method and the average of three independent measurement results was taken.
(§2) conditions: 10 mM sodium phosphate buffer (pH7.0) containing 200 mM NaCl, […] of each strand

Series [2] concerns single-stranded RNA:5′-r(ACGAGANCAUCC)-3′, N = G. The series is described as follows: Tm measurement with single-stranded RNA (base sequence identifying ability), N = G. Particulars: mismatch RNA N = G; for ΔTm (N = G), in parentheses: difference from N = A; for Tm (N = G): 10 mM sodium phosphate buffer, 200 mM NaCl. The protocol:
as §1, §2

In series [3] the test system is single-stranded RNA: 5′-r(ACGAGAACAUCC)-3′ (SEQ ID NO: 11). Description: Melting temperature (Tm) measurement, double strand-forming ability, with single-stranded RNA. Particulars: for Tm (N = A): Table 2, full-match RNA N = A, 10 mM sodium phosphate buffer; for Tm (N = A) / Tm: 200 mM NaCl; for Tm / ΔTm/mod.: duplex with single-stranded RNA SEQ ID NO: 11; for Tm: 10 mM phosphate buffer (pH7.0), 2.5 μM each oligonucleotide; for ΔTm/mod.: change per modification vs natural oligonucleotide. As for the experimental part:
as §1, §2

The subject of series [4] is single-stranded RNA:5′-r(ACGAGANCAUCC)-3′, N = C. Description: Tm measurement with single-stranded RNA (base sequence identifying ability), N = C. Particulars: mismatch RNA N = C; for ΔTm (N = C), in parentheses: difference from N = A; for Tm (N = C): 10 mM sodium phosphate buffer, 200 mM NaCl. As for the experimental part: as §1, §2
Series [5] deals with single-stranded RNA:5′-r(ACGAGANCAUCC)-3′, N = U. The series is described as follows: Tm measurement with single-stranded RNA (base sequence identifying ability), N = U. Particulars: mismatch RNA N = U; for ΔTm (N = U), in parentheses: difference from N = A; for Tm (N = U): 10 mM sodium phosphate buffer, 200 mM NaCl. The protocol: as §1, §2

By Tm is commonly meant the temperature at the midpoint of the melting transition. With “5′-GGATGTTCTCGT-3′: unmodified (natural) oligonucleotide, SEQ ID NO: 1 (unmodified DNA)”, in series [1], the Tm is 51 °C. In series [2], the “ΔTm (N = G), in parentheses” value is given as -4 º C and the “Tm (N = G)” value worked out at 48 °C. In series [3], the “Tm (N = A)” value came out at 52 °C and the Tm came to 52 °C. Further, in series [4], the “ΔTm (N = C), in parentheses” value is given as -14 º C and the “Tm (N = C)” value came out at 38 °C. Further, in series [5], the “ΔTm (N = U), in parentheses” value was -12 º C and the “Tm (N = U)” value amounted to 40 °C.
On to “5′-GGATGXTCTCGT-3′: modified oligonucleotide with one X modification; X not defined in the visible text (DNA GGATGTTCTCGT; DNA oligonucleotide with modified nucleotide X, X not given here, further chemistry not given here)”, for which, in series [1], the Tm is 53 °C and the ΔTm/mod. result was “+2.0 °C”. Also, in series [2], the “ΔTm (N = G), in parentheses” value was -5 º C and the “Tm (N = G)” value is 53 °C. Besides, in series [3], the “Tm (N = A)” value came to 58 °C, the midpoint of thermal melting (Tm) worked out at 58 °C and the ΔTm/mod. result was “+6.0 °C”. In series [4], the “ΔTm (N = C), in parentheses” value was -15 º C and the “Tm (N = C)” value was 43 °C. For the same substance, in series [5], the “ΔTm (N = U), in parentheses” value was -14 º C and the “Tm (N = U)” value came to 44 °C.
As for “5′-GGATGYTCTCGT-3′: modified oligonucleotide with one Y modification; Y not defined in the visible text (DNA GGATGTTCTCGT; Y modified nucleotide; misc_difference (6)..(6) LNA)”, in series [1], the midpoint of thermal melting (Tm) came out at 54 °C and the ΔTm/mod. result is “+3.0 °C”. In series [2], the “ΔTm (N = G), in parentheses” value is given as -5 º C and the “Tm (N = G)” value was found to be 53 °C. In addition, in series [3], the “Tm (N = A)” value was 58 °C, the midpoint of thermal melting (Tm) was determined as 58 °C and the ΔTm/mod. entry is “+6.0 °C”. Further, in series [4], the “ΔTm (N = C), in parentheses” value is -14 º C and the “Tm (N = C)” value came to 44 °C. In series [5], the “ΔTm (N = U), in parentheses” value is given as -13 º C and the “Tm (N = U)” value worked out at 45 °C.
As for “5′-GGATGZTCTCGT-3′: modified oligonucleotide with one Z modification; Z not defined in the visible text (DNA GGATGTTCTCGT; Z modified nucleotide; misc_difference (6)..(6) ENA)”, in series [1], the midpoint of thermal melting (Tm) came out at 52 °C and the ΔTm/mod. result was “+1.0 °C”. In addition, in series [2], the “ΔTm (N = G), in parentheses” value is recorded as -4 º C and the “Tm (N = G)” value worked out at 54 °C. In series [3], the “Tm (N = A)” value turned out to be 58 °C, the Tm worked out at 58 °C and the ΔTm/mod. entry was “+6.0 °C”. Moreover, in series [4], the “ΔTm (N = C), in parentheses” value was -15 º C and the “Tm (N = C)” value came to 43 °C. Also, in series [5], the “ΔTm (N = U), in parentheses” value is reported as -13 º C and the “Tm (N = U)” value was found to be 45 °C.
